One may read the IC50 as the concentration that gives 50% inhibition.

The target in the assay is T1, MAGL (Homo sapiens, UniProt Q99685).
T1 sequence (Q99685 1-303): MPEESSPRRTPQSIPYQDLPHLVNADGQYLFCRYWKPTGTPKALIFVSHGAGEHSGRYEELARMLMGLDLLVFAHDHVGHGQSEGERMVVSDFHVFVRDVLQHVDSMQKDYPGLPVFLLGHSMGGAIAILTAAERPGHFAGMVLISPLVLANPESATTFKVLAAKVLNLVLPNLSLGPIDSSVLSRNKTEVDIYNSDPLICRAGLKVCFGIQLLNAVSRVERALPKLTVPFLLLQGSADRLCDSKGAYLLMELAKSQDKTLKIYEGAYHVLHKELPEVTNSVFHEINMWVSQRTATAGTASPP
The experiment in a line: 2-AG assay (MAGL inhibitory activity, hydrolysis of 2-arachidonoylglycerol to arachidonic acid followed by mass spectrometry). It is filed as biochemical. The note with it: 8 μM 2-arachidonoylglycerol, 15 min pre-incubation, 30 min incubation at RT, RapidFire MS readout. An outline of the steps:
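Arachidonic acid released from 8 μM 2-arachidonoylglycerol was quantified by online SPE triple-quadrupole MS (negative ESI, 303.1→259.1), normalised to d8-arachidonic acid internal standard. Reaction ran 30 min at RT after 15 min RT compound pre-incubation with […] MAGL in TRIS/EDTA/Tween-20 buffer, 2.5% DMSO.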
Turning to `NC(=O)C(c1ccc(F)cc1)N1CCN(C(=O)N2CC3(CC(n4cnc(C5CC5)n4)C3)C2)CC1` (stereo not shown) [Example 332, 2-[4-[6-(3-cyclopropyl-1,2,4-triazol-1-yl)-2-azaspiro[3.3]heptane-2-carbonyl]piperazin-1-yl]-2-(4-fluorophenyl)acetamide], the IC50 worked out at 904 nM. In other words, the sub-micromolar range.
To `O=C(N1CC(c2nnc(CC3CC3)[nH]2)C1)N1CC2(CC(n3cnc(C4CC4)n3)C2)C1` [Example 333, [3-[5-(cyclopropylmethyl)-4H-1,2,4-triazol-3-yl]azetidin-1-yl]-[6-(3-cyclopropyl-1,2,4-triazol-1-yl)-2-azaspiro[3.3]heptan-2-yl]methanone] belongs 949 nM; to `CNC(=O)c1ccccc1S(=O)(=O)N1CC2(CN(C(=O)N3CC4(CC(n5cnc(C6CC6)n5)C4)C3)C2)C1` [Example 334], 993 nM.
To `CNC(=O)[C@@H](c1ccc(F)cc1)N1CCN(C(=O)N2CC3(CC(n4cnc(C5CC5)n4)C3)C2)CC1` [Example 335, (2R)-2-[4-[6-(3-cyclopropyl-1,2,4-triazol-1-yl)-2-azaspiro[3.3]heptane-2-carbonyl]piperazin-1-yl]-2-(4-fluorophenyl)-N-methyl-acetamide] belongs 1400 nM; to `O=C(N1CCC(NS(=O)(=O)c2ccc(F)cc2)CC1)N1CC2(CC(n3cnc(C4CC4)n3)C2)C1` [Example 336, N-[1-[6-(3-cyclopropyl-1,2,4-triazol-1-yl)-2-azaspiro[3.3]heptane-2-carbonyl]-4-piperidyl]-4-fluoro-benzenesulfonamide], 1440 nM; to `O=C(N1CC2(CC(n3cnc(C4CC4)n3)C2)C1)N1CC2(C1)CN(C(=O)C(F)(F)F)C2` [Example 337, 1-[2-[6-(3-cyclopropyl-1,2,4-triazol-1-yl)-2-azaspiro[3.3]heptane-2-carbonyl]-2,6-diazaspiro[3.3]heptan-6-yl]-2,2,2-trifluoro-ethanone], 1830 nM.
The result for `O=C(O)c1ccccc1S(=O)(=O)N1CC2(CN(C(=O)N3CC4(CC(n5cnc(C6CC6)n5)C4)C3)C2)C1` [Example 338, 2-[[6-[6-(3-cyclopropyl-1,2,4-triazol-1-yl)-2-azaspiro[3.3]heptane-2-carbonyl]-2,6-diazaspiro[3.3]heptan-2-yl]sulfonyl]benzoic acid] reads 2150 nM.
In turn, `O=C(N1CC2(CC(n3cnc(C4CC4)n3)C2)C1)N1CC2(C1)CN(S(=O)(=O)C1CS(=O)(=O)C1)C2` [Example 339, [6-(3-cyclopropyl-1,2,4-triazol-1-yl)-2-azaspiro[3.3]heptan-2-yl]-[2-(1,1-dioxothietan-3-yl)sulfonyl-2,6-diazaspiro[3.3]heptan-6-yl]methanone] gave an IC50 of 3010 nM.
To `CNC(=O)C(c1ccc(F)cc1)N1CCN(C(=O)N2CC3(CC(n4cnc(C5CC5)n4)C3)C2)CC1` (stereo not shown) [Example 340, 2-[4-[6-(3-cyclopropyl-1,2,4-triazol-1-yl)-2-azaspiro[3.3]heptane-2-carbonyl]piperazin-1-yl]-2-(4-fluorophenyl)-N-methyl-acetamide] belongs 3190 nM; to `O=C(N1CC2(CC(Cc3ccc(F)cc3F)C2)C1)N1CC2(CC(c3ccc(F)cc3)C2)C1` [Example 343, [6-[(2,4-difluorophenyl)methyl]-2-azaspiro[3.3]heptan-2-yl]-[6-(4-fluorophenyl)-2-azaspiro[3.3]heptan-2-yl]methanone], 491 nM.
To `CS(=O)(=O)c1cc(Cl)ccc1-c1ccc(C2CN(C(=O)N3CC4(CC(c5cnc(C(F)(F)F)nc5)C4)C3)C2)cc1` [Example 344, [3-[4-(4-chloro-2-methylsulfonyl-phenyl)phenyl]azetidin-1-yl]-[6-[2-(trifluoromethyl)pyrimidin-5-yl]-2-azaspiro[3.3]heptan-2-yl]methanone] belongs 1.62 nM; to `O=C(N1CC2(CC(Cc3ccc(F)cc3F)C2)C1)N1CC2(CC(c3ccc(S(=O)(=O)C(F)(F)F)cc3)C2)C1` [Example 345, [6-[(2,4-difluorophenyl)methyl]-2-azaspiro[3.3]heptan-2-yl]-[6-[4-(trifluoromethylsulfonyl)phenyl]-2-azaspiro[3.3]heptan-2-yl]methanone], 28.9 nM.
To `CS(=O)(=O)c1ccc(C2CC3(C2)CN(C(=O)N2CC4(CC(Cc5ccc(F)cc5F)C4)C2)C3)cc1` [Example 346, [6-[(2,4-difluorophenyl)methyl]-2-azaspiro[3.3]heptan-2-yl]-[6-(4-methylsulfonylphenyl)-2-azaspiro[3.3]heptan-2-yl]methanone] belongs 15.7 nM; to `CS(=O)(=O)c1cc(C(F)(F)F)ccc1C1CC2(C1)CN(C(=O)N1CC3(CC(Cc4ccc(F)cc4F)C3)C1)C2` [Example 347, [6-[(2,4-difluorophenyl)methyl]-2-azaspiro[3.3]heptan-2-yl]-[6-[2-methylsulfonyl-4-(trifluoromethyl)phenyl]-2-azaspiro[3.3]heptan-2-yl]methanone], 833 nM; to `O=C(N1CC2(CC(Cc3ccc(Cl)cn3)C2)C1)N1CC2(C1)CN(c1cncc(F)c1)C2` [Example 348, [6-[(5-chloro-2-pyridyl)methyl]-2-azaspiro[3.3]heptan-2-yl]-[6-(5-fluoro-3-pyridyl)-2,6-diazaspiro[3.3]heptan-2-yl]methanone], 66.3 nM.
Consider `CC(C)(C)Cn1nncc1-c1ccc(C2CN(C(=O)N3CC4(C3)CN(c3cncc(F)c3)C4)C2)cc1` [Example 349, [3-[4-[3-(2,2-dimethylpropyl)triazol-4-yl]phenyl]azetidin-1-yl]-[6-(5-fluoro-3-pyridyl)-2,6-diazaspiro[3.3]heptan-2-yl]methanone], for which the IC50 stood at 11.9 nM. Against the preceding compound, the IC50 is about 5.6-fold lower.
To `CS(=O)(=O)c1cc(Cl)ccc1-c1ccc(C2CN(C(=O)N3CC4(C3)CN(c3cncc(F)c3)C4)C2)cc1` [Example 350, [3-[4-(4-chloro-2-methylsulfonyl-phenyl)phenyl]azetidin-1-yl]-[6-(5-fluoro-3-pyridyl)-2,6-diazaspiro[3.3]heptan-2-yl]methanone] belongs 12.8 nM.
To `O=C(N1CC2(CC(n3cnc(C(F)(F)F)n3)C2)C1)N1CC2(CN(Cc3ccc(S(=O)(=O)C(F)(F)F)cc3)C2)C1` [Example 353, [6-[[4-(trifluoromethylsulfonyl)phenyl]methyl]-2,6-diazaspiro[3.3]heptan-2-yl]-[6-[3-(trifluoromethyl)-1,2,4-triazol-1-yl]-2-azaspiro[3.3]heptan-2-yl]methanone] belongs 2.4 nM; to `CS(=N)(=O)c1cc(F)ccc1CC1CC2(C1)CN(C(=O)N1CC3(CC(n4cnc(C5(O)CC5)n4)C3)C1)C2` (stereo not shown) [Example 354, [6-[[4-fluoro-2-(methylsulfonimidoyl)phenyl]methyl]-2-azaspiro[3.3]heptan-2-yl]-[6-[3-(1-hydroxycyclopropyl)-1,2,4-triazol-1-yl]-2-azaspiro[3.3]heptan-2-yl]methanone], 19.2 nM; to `Cc1cc(C2CC2)n(C23CC(C4CN(C(=O)N5CC6(CC(n7cnc(C8(O)CC8)n7)C6)C5)C4)(C2)C3)n1` [Example 355, [3-[3-(5-cyclopropyl-3-methyl-pyrazol-1-yl)-1-bicyclo[1.1.1]pentanyl]azetidin-1-yl]-[6-[3-(1-hydroxycyclopropyl)-1,2,4-triazol-1-yl]-2-azaspiro[3.3]heptan-2-yl]methanone], 134 nM.
As for `Cc1cc(C)n(C23CC(C4CN(C(=O)N5CC6(CC(n7cnc(C8(O)CC8)n7)C6)C5)C4)(C2)C3)n1` [Example 356, [3-[3-(3,5-dimethylpyrazol-1-yl)-1-bicyclo[1.1.1]pentanyl]azetidin-1-yl]-[6-[3-(1-hydroxycyclopropyl)-1,2,4-triazol-1-yl]-2-azaspiro[3.3]heptan-2-yl]methanone], half-maximal inhibition (IC50) was put at 1090 nM.
Consider `O=C(N1CC2(CC(Cc3ccc4[nH]ncc4n3)C2)C1)N1CC2(CC(n3cnc(C4CC4)n3)C2)C1` [Example 357, [6-(3-cyclopropyl-1,2,4-triazol-1-yl)-2-azaspiro[3.3]heptan-2-yl]-[6-(1H-pyrazolo[4,3-b]pyridin-5-ylmethyl)-2-azaspiro[3.3]heptan-2-yl]methanone], for which the IC50 amounted to 2.01 nM.
Consider `O=C(N1CC2(CC(Cc3ccc(F)cc3F)C2)C1)N1CC2(CC(c3ccc(C(F)(F)F)nc3)C2)C1` [Example 358, [6-[(2,4-difluorophenyl)methyl]-2-azaspiro[3.3]heptan-2-yl]-[6-[6-(trifluoromethyl)-3-pyridyl]-2-azaspiro[3.3]heptan-2-yl]methanone], for which the IC50 amounted to 30.6 nM.
To `CS(=O)(=O)c1cc(CC2CC3(C2)CN(C(=O)N2CC4(CC(n5cnc(C6(O)CC6)n5)C4)C2)C3)cc(C(F)(F)F)c1` [Example 359, [6-[3-(1-hydroxycyclopropyl)-1,2,4-triazol-1-yl]-2-azaspiro[3.3]heptan-2-yl]-[6-[[3-methylsulfonyl-5-(trifluoromethyl)phenyl]methyl]-2-azaspiro[3.3]heptan-2-yl]methanone] belongs 1 nM.
To `O=C(N1CC2(CC(n3cnc(C4(O)CC4)n3)C2)C1)N1CC2(CC[C@@H](Cc3cccc(S(=O)(=O)C(F)(F)F)c3)C2)C1` [Example 360, [6-[3-(1-hydroxycyclopropyl)-1,2,4-triazol-1-yl]-2-azaspiro[3.3]heptan-2-yl]-[(6S)-6-[[3-(trifluoromethylsulfonyl)phenyl]methyl]-2-azaspiro[3.4]octan-2-yl]methanone] belongs 0.13 nM.
